Assay [1] can be described thus: Antiplatelet activity against ADP-induced C57BL/6J mouse platelet aggregation assessed as maximal aggregration rate at 10 uM preincubated for 10 mins followed by ADP addition relative to control. It counts as functional.
The test system of assay [2] is Platelet. Description: Inhibition of ADP-induced Akt activation in C57BL/6J mouse platelet assessed as reduction of AKT phosphorylation at Ser473 by western blot analysis. Type of assay: cell-based. A general note: A western blot detects proteins with antibodies after separation by electrophoresis.
The test system of assay [3] is Mus musculus. Description: Antiplatelet activity against ADP-induced C57BL/6J mouse platelet aggregation assessed as reduction in P-selectin surface levels at 100 mg/kg, po measured after 2 weeks by flow cytometry analysis. It counts as functional, organism-based.
For assay [4], the system named is Mus musculus. Description: Antiplatelet activity against ADP-induced C57BL/6J mouse platelet aggregation assessed as reduction in integrin alphaIIbbeta3 surface level at 100 mg/kg, po measured after 2 weeks by flow cytometry analysis. Type of assay: functional, organism-based.
For assay [5], the system named is Platelet. Description: Inhibition of ADP-induced Akt activation in C57BL/6J mouse platelets assessed as reduction in phosphorylation Akt level at Ser473 at 100 mg/kg, po measured after 2 weeks by western blot analysis. Type of assay: organism-based.
The test system of assay [6] is Mus musculus. Description: Antithrombotic activity in BALB/c mouse model of carrageenan-induced thrombus formation assessed as inhibition of thrombosis rate in tail at 100 mg/kg, iv measured after 14 days. The settings on record: time 14.0 day. It counts as functional, organism-based.
Assay [7] has as its system Mus musculus. Description: Antiplatelet activity against ADP-induced C57BL/6J mouse platelet aggregation assessed as inhibition of platelet aggregation at 100 mg/kg, po measured after 2 weeks. It counts as functional, organism-based.
Assay [8] deals with Lung. Description: Antithrombotic activity in BALB/c mouse model of carrageenan-induced thrombus formation assessed as reduced thrombus formation in lung at 100 mg/kg, iv measured after 14 days by H and E staining based assay. It counts as functional, organism-based. The settings on record: time 14.0 day.
Assay [9] concerns Mus musculus. Description: Antithrombotic activity in BALB/c mouse model of carrageenan-induced thrombus formation assessed as reduced serum P-selectin level at 100 mg/kg, iv measured after 14 days by ELISA. It counts as functional, organism-based. The settings on record: time 14.0 day. For orientation: In an ELISA, binding on a coated surface is turned into a signal by an enzyme label.

Assay [10] has as its system Mus musculus. Description: Antiplatelet activity against ADP-induced C57BL/6J mouse platelet aggregation assessed as reduction in integrin alphaIIbbeta3 surface level at 20 mg/kg, po measured after 2 weeks by flow cytometry analysis. It counts as functional, organism-based. On the technique in general: Flow cytometry measures light scatter and fluorescence of single cells or particles in a stream.

Assay [11] has as its system Mus musculus. Description: Antiplatelet activity against ADP-induced C57BL/6J mouse platelet aggregation assessed as reduction in P-selectin surface levels at 20 mg/kg, po measured after 2 weeks by flow cytometry analysis. It counts as functional, organism-based.
Assay [12] has as its system Platelet. Description: Inhibition of ADP-induced Akt activation in C57BL/6J mouse platelets assessed as reduction in phosphorylation Akt level at Ser473 at 20 mg/kg, po measured after 2 weeks by western blot analysis. Type of assay: organism-based.
Assay [13] has as its system Mus musculus. Description: Antiplatelet activity against ADP-induced C57BL/6J mouse platelet aggregation assessed as inhibition of platelet aggregation at 20 mg/kg, po measured after 2 weeks. Type of assay: functional, organism-based.
The test system of assay [14] is Mus musculus. Description: Antithrombotic activity in BALB/c mouse model of carrageenan-induced thrombus formation assessed as inhibition of thrombosis rate in tail at 20 mg/kg, iv measured after 14 days. The settings on record: time 14.0 day. It counts as functional, organism-based.
Assay [15] deals with Lung. Description: Antithrombotic activity in BALB/c mouse model of carrageenan-induced thrombus formation assessed as reduced thrombus formation in lung at 20 mg/kg, iv measured after 14 days by H and E staining based assay. Type of assay: functional, organism-based. The settings on record: time 14.0 day.
Assay [16] deals with Mus musculus. Description: Antithrombotic activity in BALB/c mouse model of carrageenan-induced thrombus formation assessed as reduced serum P-selectin level at 20 mg/kg, iv measured after 14 days by ELISA. It counts as functional, organism-based. As to conditions: time 14.0 day.

Data on two molecules can be found in ChEMBL document CHEMBL5154911, “Palmatine Derivatives as Potential Antiplatelet Aggregation Agents via Protein Kinase G/Vasodilator-Stimulated Phosphoprotein and Phosphatidylinositol 3-Kinase/Akt Phosphorylation” (J Med Chem, 2022).

Active and inactive are the calls of the source. The calls are words filed in the database; no cut-off is given here.

Turning to `COc1ccc2cc3[n+](cc2c1OC)CCc1cc2c(cc1-3)OCO2` [BERBERINE], the “%max” value in assay [1] stood at 27.5%. The inhibition entry in the assay with Platelet [2] and with Platelet [5] was “Active” in each case. Moreover, the result in the assay with Mus musculus [3], in the assay on Mus musculus [4], in the assay with Mus musculus [6], with Mus musculus [7], in the assay on Lung [8] and in the assay on Mus musculus [9] was Active.
For the molecule `CC(=O)Oc1ccccc1C(=O)O` [ASPIRIN], the outcome in the assay with Mus musculus [10], with Mus musculus [11], in the assay on Mus musculus [13], with Mus musculus [14], with Lung [15] and in the assay with Mus musculus [16] was Active. For the same molecule, the “%max” value in assay [1] came to 26.4%. Also, the inhibition result in the assay with Platelet [2] and with Platelet [12] was “Active” throughout.
